Test system: KRAS patient-derived spheroids with HUVEC/MSC, viability
Assay: Anticancer human tumor 519858-162-T-J1-PDC patient-derived colon adenocarcinoma cell line growth inhibition [KRAS2]
Conditions: for IC50: curve of first compound; for viability, T/C: stronger effect = lower value
How it was run: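 KRAS-mutant tumor cells were grown as spheroids with HUVEC endothelial cells and human MSCs as stroma. Targeted agents were tested alone and with KRAS pathway inhibitors. Doses started at or near clinical Cmax, or 10 microM, descending half-log.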

[1] = second compound 0.1 µM, first compound 0.0316 µM
[2] = second compound 0.1 µM, first compound 0.1 µM
[3] = second compound 0.1 µM, first compound 0.316 µM
[4] = second compound 0.1 µM, first compound 1 µM
[5] = second compound 0.1 µM, first compound 3.16 µM
[6] = second compound 0.1 µM, first compound 10 µM
[7] = second compound 0.316 µM, first compound 0.0316 µM
[8] = second compound 0.316 µM, first compound 0.1 µM
[9] = second compound 0.316 µM, first compound 0.316 µM
[10] = second compound 0.316 µM, first compound 1 µM
[11] = second compound 0.316 µM, first compound 3.16 µM
[12] = second compound 0.316 µM, first compound 10 µM
[13] = second compound 1 µM, first compound 0.0316 µM
[14] = second compound 1 µM, first compound 0.1 µM
[15] = second compound 1 µM, first compound 0.316 µM
[16] = second compound 1 µM, first compound 1 µM
[17] = second compound 1 µM, first compound 3.16 µM
[18] = second compound 1 µM, first compound 10 µM
[19] = second compound 3.16 µM, first compound 0.0316 µM
[20] = second compound 3.16 µM, first compound 0.1 µM
[21] = second compound 3.16 µM, first compound 0.316 µM
[22] = second compound 3.16 µM, first compound 1 µM
[23] = second compound 3.16 µM, first compound 3.16 µM
[24] = second compound 3.16 µM, first compound 10 µM
[25] = second compound 10 µM, first compound 0.0316 µM
[26] = second compound 10 µM, first compound 0.1 µM
[27] = second compound 10 µM, first compound 0.316 µM
[28] = second compound 10 µM, first compound 1 µM
[29] = second compound 10 µM, first compound 3.16 µM
[30] = second compound 10 µM, first compound 10 µM
[31] = second compound 0.1 µM, first compound 0.01 µM
[32] = second compound 0.316 µM, first compound 0.01 µM
[33] = second compound 1 µM, first compound 0.01 µM
[34] = second compound 3.16 µM, first compound 0.01 µM
[35] = second compound 10 µM, first compound 0.01 µM
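Further: compound exposure lasted seven days before readout.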
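Wherever viability, T/C is given: 100% = DMSO vehicle control viability.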

Compound	IC50 (second compound 0.1 µM) [nM]	IC50 (second compound 0.316 µM) [nM]	IC50 (second compound 1 µM) [nM]	IC50 (second compound 3.16 µM) [nM]	IC50 (second compound 10 µM) [nM]	viability, T/C [1] [%]	viability, T/C [2] [%]	viability, T/C [3] [%]	viability, T/C [4] [%]	viability, T/C [5] [%]	viability, T/C [7] [%]	viability, T/C [8] [%]	viability, T/C [9] [%]	viability, T/C [10] [%]	viability, T/C [13] [%]	viability, T/C [14] [%]	viability, T/C [19] [%]	viability, T/C [20] [%]	viability, T/C [25] [%]	viability, T/C [26] [%]	further results
Cn1nccc1Nc1nccc(-c2cc3c(s2)C(C)(C)N(CCN2CCOCC2)C3=O)n1 + CC1OCC2(CCN(c3cnc(Sc4ccnc(N)c4Cl)c(N)n3)CC2)C1N	3830	1740	341	188	144	70.9	71.8	60.6	64.3	54.4	66.6	52.6	69.5	62.7	50.2	53.7	53.6	62.3	47.5	63.1	viability, T/C [6]: 33%; viability, T/C [11]: 36.2%; viability, T/C [12]: 25.1%; viability, T/C [15]: 48.6%; viability, T/C [16]: 41%; viability, T/C [17]: 28.1%; viability, T/C [18]: 30.8%; viability, T/C [21]: 41.5%; viability, T/C [22]: 35.6%; viability, T/C [23]: 23.4%; viability, T/C [24]: 28.1%; viability, T/C [27]: 38.5%; viability, T/C [28]: 36.8%; viability, T/C [29]: 26.5%; viability, T/C [30]: 34.1%
CC(=O)OC12COC1CC(O)C1(C)C(=O)C(O)C3=C(C)C(OC(=O)C(O)C(NC(=O)OC(C)(C)C)c4ccccc4)CC(O)(C(OC(=O)c4ccccc4)C21)C3(C)C (stereo not given) + CNCc1ccccc1-c1csc(C(C)Nc2nc(C)nc3cc(OC)c(OC)cc23)c1	> 3160	> 3160	> 3160	81.6	< 10	75	77	74.6	78	62.5	66.5	85.8	71.9	63.6	129	94.9	74.8	38.7	1.29	10.6	viability, T/C [31]: 96.1%; viability, T/C [32]: 76.2%; viability, T/C [11]: 73.9%; viability, T/C [33]: 80.8%; viability, T/C [15]: 106%; viability, T/C [16]: 86.2%; viability, T/C [17]: 68.5%; viability, T/C [34]: 117%; viability, T/C [21]: 38%; viability, T/C [22]: 21.1%; viability, T/C [23]: 80.8%; viability, T/C [35]: 43.4%; viability, T/C [27]: 8.61%; viability, T/C [28]: 86.4%; viability, T/C [29]: 2.58%
CN(C)C/C=C/C(=O)Nc1cc2c(Nc3ccc(F)c(Cl)c3)ncnc2cc1O[C@H]1CCOC1 + CNCc1ccccc1-c1csc(C(C)Nc2nc(C)nc3cc(OC)c(OC)cc23)c1	> 100	> 100	> 100	10.5	< 0.316	84	77.8	–	–	–	69.5	54.6	–	–	89.2	68.9	61.6	37.3	0.8	0.42	viability, T/C (second compound 0.1 µM, first compound 0.000316 µM): 118%; viability, T/C (second compound 0.1 µM, first compound 0.001 µM): 89.8%; viability, T/C (second compound 0.1 µM, first compound 0.00316 µM): 70.9%; viability, T/C [31]: 63.4%; viability, T/C (second compound 0.316 µM, first compound 0.000316 µM): 81.1%; viability, T/C (second compound 0.316 µM, first compound 0.001 µM): 74.8%; viability, T/C (second compound 0.316 µM, first compound 0.00316 µM): 70.2%; viability, T/C [32]: 59.4%; viability, T/C (second compound 1 µM, first compound 0.000316 µM): 64.8%; viability, T/C (second compound 1 µM, first compound 0.001 µM): 59.2%; viability, T/C (second compound 1 µM, first compound 0.00316 µM): 55.2%; viability, T/C [33]: 51%; viability, T/C (second compound 3.16 µM, first compound 0.000316 µM): 60.6%; viability, T/C (second compound 3.16 µM, first compound 0.001 µM): 61%; viability, T/C (second compound 3.16 µM, first compound 0.00316 µM): 47.7%; viability, T/C [34]: 43.5%; viability, T/C (second compound 10 µM, first compound 0.000316 µM): 0.31%; viability, T/C (second compound 10 µM, first compound 0.001 µM): 0.87%; viability, T/C (second compound 10 µM, first compound 0.00316 µM): 0.47%; viability, T/C [35]: 0.36%
O=C(c1cc(Cc2n[nH]c(=O)c3ccccc23)ccc1F)N1CCN(C(=O)C2CC2)CC1 + CNCc1ccccc1-c1csc(C(C)Nc2nc(C)nc3cc(OC)c(OC)cc23)c1	> 10000	> 10000	> 10000	> 10000	< 31.6	78.8	93.4	86.4	82.6	78.9	105	105	97.8	75.8	132	92.3	60.3	52.2	0.49	0.38	viability, T/C [6]: 115%; viability, T/C [11]: 70.9%; viability, T/C [12]: 82.4%; viability, T/C [15]: 77%; viability, T/C [16]: 127%; viability, T/C [17]: 91.8%; viability, T/C [18]: 115%; viability, T/C [21]: 59.5%; viability, T/C [22]: 70.5%; viability, T/C [23]: 76.8%; viability, T/C [24]: 64.6%; viability, T/C [27]: 0.54%; viability, T/C [28]: 0.33%; viability, T/C [29]: 0.44%; viability, T/C [30]: 0.38%

Source: PubChem BioAssay AID1963872 (Molecular Pharmacology Branch, DTP, NCI, 2024)
